Data as given in article PMC11583123, “Linker Chemistry and Connectivity Fine-Tune the Immune Response and Kinetic Solubility of Conjugated NOD2/TLR7 Agonists” (Bioconjugate Chemistry, 2024).

What was measured:
[1] = Kinetic solubility in PBS (UHPLC, method of Hoelke et al.); type: physicochemical; details: for solubility kinetic: PBS, aqueous with cosolvent or surfactant or cyclodextrin, kinetic from dmso stock, 5% DMSO
Method: Second, the kinetic solubility of all individual building blocks (compounds 4-7) and conjugates was determined (results are listed in Table 1) in order to highlight how fine-tuning of linker traits can impact this physicochemical property. Kinetic solubility refers to the maximum solubility of a compound when it precipitates from a supersaturated solution, which is metastable and not in equilibrium; it was measured using the method described by Hoelke et al.[34] The length and composition of the linker as well as linkage site are important for activity and physicochemical characteristics of conjugates, which in turn affect their pharmacokinetic profiles. In general, the benzylic COOH was exploited exclusively as the linker attachment site in TLR7 agonist-featuring conjugates, while two potential linkage sites were considered in the structure of NOD2 agonist. […] In conjugates 22-24 and 29, the moieties were connected via the γ-COOH group of the NOD2 agonist. […] It has to be kept in mind that among the polyalkylethers, the structural requirements for aqueous solubility are poised toward the (−OCH2CH2−)n unit while (−OCH2CH2CH2−)n is not beneficial in this respect.[35] […]
suspension was filtered through a syringe filter (0.45 μm), diluted 2.25-fold with acetonitrile, and analyzed with UHPLC. The solubility was quantified with a five-point calibration curve from 500 to 0.8 μM generated by dilution of the original DMSO solution into a 1:1 mixture of acetonitrile and PBS. The content of DMSO in all solutions was fixed to 5% by adding the respective amounts of DMSO. The column used was Waters Acquity UPLC BEH C18 (1.7 μm, 2.1 × 50 mm). The eluent was a mixture of 0.1% TFA in water (A) and acetonitrile (B), with a gradient of (%B): 0−6 min, 5−95%; 6−8 min, 95%; 8−8.5 min, 95−5%. The column was thermostated at 40 °C.
3.1. Hek-Blue NOD2, TLR7 and TLR8 cells. […]
(BioTek Synergy microplate reader; Winooski, VT, USA). EC50 values were calculated using Prism

human NOD2 = target: T1, human NOD2 (Homo sapiens, UniProt Q9HC29); assay: HEK-Blue NOD2 NF-κB SEAP reporter assay; type: cell-based; details: HEK-Blue NOD2 cells
T1 construct: host or cells: HEK-Blue NOD2 (HEK293-derived)
T1 sequence (Q9HC29 whole entry): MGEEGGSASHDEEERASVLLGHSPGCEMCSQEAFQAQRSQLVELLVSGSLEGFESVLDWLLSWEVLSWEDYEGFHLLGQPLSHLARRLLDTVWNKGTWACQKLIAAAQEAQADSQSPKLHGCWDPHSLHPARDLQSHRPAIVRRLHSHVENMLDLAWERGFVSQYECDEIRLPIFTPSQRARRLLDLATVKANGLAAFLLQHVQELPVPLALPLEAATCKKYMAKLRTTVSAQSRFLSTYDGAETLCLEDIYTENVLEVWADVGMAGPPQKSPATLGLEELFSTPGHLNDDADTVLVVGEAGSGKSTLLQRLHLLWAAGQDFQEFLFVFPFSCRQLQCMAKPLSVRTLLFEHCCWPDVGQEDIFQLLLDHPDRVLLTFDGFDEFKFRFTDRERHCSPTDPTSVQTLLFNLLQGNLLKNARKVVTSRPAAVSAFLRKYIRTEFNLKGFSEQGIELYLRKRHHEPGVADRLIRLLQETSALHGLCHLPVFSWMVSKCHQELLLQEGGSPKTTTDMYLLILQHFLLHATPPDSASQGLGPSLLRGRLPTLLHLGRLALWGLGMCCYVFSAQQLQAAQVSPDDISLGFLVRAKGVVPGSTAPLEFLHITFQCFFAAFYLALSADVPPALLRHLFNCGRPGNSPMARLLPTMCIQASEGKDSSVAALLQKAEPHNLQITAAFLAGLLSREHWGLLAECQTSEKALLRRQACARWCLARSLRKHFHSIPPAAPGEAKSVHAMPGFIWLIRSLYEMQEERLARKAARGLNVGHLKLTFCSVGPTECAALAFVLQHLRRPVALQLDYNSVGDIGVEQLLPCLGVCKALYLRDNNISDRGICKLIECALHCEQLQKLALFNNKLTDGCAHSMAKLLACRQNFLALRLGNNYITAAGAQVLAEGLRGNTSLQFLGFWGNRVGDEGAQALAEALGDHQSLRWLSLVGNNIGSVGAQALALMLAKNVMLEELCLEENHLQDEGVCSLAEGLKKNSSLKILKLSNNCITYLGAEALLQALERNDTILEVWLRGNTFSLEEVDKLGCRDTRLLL
Description: (§1) The building blocks and synthesized conjugates were initially assessed for their receptor-specific activities toward NOD2, TLR7 and TLR8 using the commercially available HEK-Blue NOD2, TLR7 and TLR8 reporter cell lines. These cell lines were derived from HEK293 cells by cotransfection of human NOD2/TLR7/TLR8 and an NF-κB-inducible secreted embryonic alkaline phosphatase (SEAP). Activation of NOD2/TLR7/TLR8, and subsequently of NF-κB, leads to the expression and secretion of SEAP, the levels of which can be quantified colorimetrically. […]
(§2) 3.1. Hek-Blue NOD2, TLR7 and TLR8 cells.
(§3) HEK-Blue NOD2, TLR7, and TLR8 cells (Invivogen, San Diego, CA, USA) were cultured according to the manufacturer instructions in Dulbecco’s modified Eagle’s medium (Sigma-Aldrich, St. Louis, MO, USA) supplemented with 10% heat-inactivated fetal bovine serum (Gibco), 2 mM L-glutamine (Sigma-Aldrich), 100 U/mL penicillin (Sigma-Aldrich), 100 µg/mL streptomycin (Sigma-Aldrich), and 100 µg/mL Normocin (Invivogen) for two passages. All subsequent passages of NOD2 and TLR8 cells were cultured in medium additionally supplemented with 100 µg/mL Zeocin and 30 µg/mL Blasticidin (Invivogen) and of TLR7 cells with 100 µg/mL Zeocin and 10 µg/mL Blasticidin. […]
(§4) The tested compounds were dissolved in DMSO and further diluted in culture medium to the desired final concentrations, such that the final DMSO concentration never exceeded 0.1%. […]
(§5) 3.4 NOD2/TLR7/TLR8 NF-kB reporter assay
(§6) HEK-Blue NOD2 cells (25,000 cells/well), TLR7 and TLR8 cells (40,000 cells/well) were seeded in 96-well plates in 100 µL HEK-Blue detection medium (Invivogen, San Diego, CA, USA) and treated with […]
(§7) corresponding vehicle (0.1% DMSO). After 18 h of incubation (37 °C, 5% CO2), secreted embryonic

human TLR7 = target: T2, human TLR7 (Homo sapiens, UniProt Q9NYK1); assay: HEK-Blue TLR7 NF-κB SEAP reporter assay; type: cell-based; details: for EC50 / TLR7 agonistic activity (in words): HEK-Blue TLR7 cells; for EC50: 18 h, eight concentrations (1 nM to 10 μM), mean ± SEM; for TLR7 agonistic activity (in words): up to 10 μM
T2 construct: host or cells: HEK-Blue TLR7 (HEK293-derived)
T2 sequence (Q9NYK1 27-1049): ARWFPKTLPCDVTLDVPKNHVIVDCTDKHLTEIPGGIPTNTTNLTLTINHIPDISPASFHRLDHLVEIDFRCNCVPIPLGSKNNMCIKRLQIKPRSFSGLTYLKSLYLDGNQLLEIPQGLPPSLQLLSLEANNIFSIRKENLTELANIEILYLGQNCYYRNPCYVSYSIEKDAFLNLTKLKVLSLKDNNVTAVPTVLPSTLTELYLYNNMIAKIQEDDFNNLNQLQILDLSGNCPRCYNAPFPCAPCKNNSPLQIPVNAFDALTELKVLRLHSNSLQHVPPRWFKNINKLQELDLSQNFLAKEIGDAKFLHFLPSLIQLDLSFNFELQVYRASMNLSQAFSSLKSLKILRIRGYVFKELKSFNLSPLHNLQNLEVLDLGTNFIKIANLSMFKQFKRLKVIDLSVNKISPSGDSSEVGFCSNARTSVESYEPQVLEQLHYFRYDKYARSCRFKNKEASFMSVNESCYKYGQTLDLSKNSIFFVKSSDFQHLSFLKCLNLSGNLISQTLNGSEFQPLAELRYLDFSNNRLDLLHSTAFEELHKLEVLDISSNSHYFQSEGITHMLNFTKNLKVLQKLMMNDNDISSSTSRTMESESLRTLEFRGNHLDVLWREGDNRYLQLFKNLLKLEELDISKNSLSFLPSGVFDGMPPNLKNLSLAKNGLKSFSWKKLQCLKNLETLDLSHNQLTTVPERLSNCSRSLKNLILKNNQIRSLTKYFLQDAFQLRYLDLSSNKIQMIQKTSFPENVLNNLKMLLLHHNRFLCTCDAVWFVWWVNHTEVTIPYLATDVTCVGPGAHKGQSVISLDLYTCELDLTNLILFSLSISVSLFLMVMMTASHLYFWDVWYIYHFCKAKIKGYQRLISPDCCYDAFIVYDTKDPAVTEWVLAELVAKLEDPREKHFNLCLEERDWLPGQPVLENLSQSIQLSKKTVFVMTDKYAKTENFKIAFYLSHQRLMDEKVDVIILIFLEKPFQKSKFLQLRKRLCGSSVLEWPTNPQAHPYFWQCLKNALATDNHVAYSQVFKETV
Description: as §1, §2, §3, §4, §5, §6, §7

human TLR8 = target: T3, human TLR8 (Homo sapiens, UniProt Q9NR97); assay: HEK-Blue TLR8 NF-κB SEAP reporter assay; type: cell-based; details: HEK-Blue TLR8 cells, 18 h, eight concentrations (1 nM to 10 μM), mean ± SEM
T3 construct: host or cells: HEK-Blue TLR8 (HEK293-derived)
T3 sequence (Q9NR97 27-1041): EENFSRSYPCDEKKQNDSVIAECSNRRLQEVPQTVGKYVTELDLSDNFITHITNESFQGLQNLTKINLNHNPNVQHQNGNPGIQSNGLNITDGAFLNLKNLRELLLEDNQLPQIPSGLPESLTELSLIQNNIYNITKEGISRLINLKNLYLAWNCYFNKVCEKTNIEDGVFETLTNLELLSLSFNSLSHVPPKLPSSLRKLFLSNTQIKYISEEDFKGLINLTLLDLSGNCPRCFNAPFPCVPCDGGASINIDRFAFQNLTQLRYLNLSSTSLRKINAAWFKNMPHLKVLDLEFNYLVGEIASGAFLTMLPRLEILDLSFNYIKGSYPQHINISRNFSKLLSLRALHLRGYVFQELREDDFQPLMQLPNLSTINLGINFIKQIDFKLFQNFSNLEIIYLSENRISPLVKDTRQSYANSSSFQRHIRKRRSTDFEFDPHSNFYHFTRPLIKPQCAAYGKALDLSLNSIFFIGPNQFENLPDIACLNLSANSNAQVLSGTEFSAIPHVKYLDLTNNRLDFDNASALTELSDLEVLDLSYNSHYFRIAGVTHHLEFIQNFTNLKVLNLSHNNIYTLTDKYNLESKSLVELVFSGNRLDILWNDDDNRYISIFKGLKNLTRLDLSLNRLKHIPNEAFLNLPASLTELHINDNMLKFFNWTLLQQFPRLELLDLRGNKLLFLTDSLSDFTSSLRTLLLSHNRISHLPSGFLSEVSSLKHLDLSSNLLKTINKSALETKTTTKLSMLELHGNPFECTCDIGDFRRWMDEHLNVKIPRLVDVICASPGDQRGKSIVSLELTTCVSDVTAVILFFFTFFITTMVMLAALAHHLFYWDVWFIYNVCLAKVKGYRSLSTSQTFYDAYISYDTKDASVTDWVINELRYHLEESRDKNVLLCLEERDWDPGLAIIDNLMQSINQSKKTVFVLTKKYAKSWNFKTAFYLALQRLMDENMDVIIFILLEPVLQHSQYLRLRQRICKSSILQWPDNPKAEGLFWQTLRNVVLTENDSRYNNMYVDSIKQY
Description: as §1, §2, §3, §4, §5, §6, §7

[2] = 18 h, eight concentrations (1 nM to 10 μM), mean ± SEM

Compound	solubility kinetic [1]	EC50 (human NOD2)	EC50 (human NOD2; [2])	EC50 (human TLR7)	TLR7 agonistic activity (in words) (human TLR7)	Enhancement of TLR7 activity over 22 and 29 (human TLR7; ratio of EC50 values)	Boost in solubility over conjugate 2 ([1]; ratio of kinetic solubilities in PBS)	EC50 (human TLR8)
CCCCOc1nc(N)c2nc(O)n(Cc3ccc(C(=O)NCCCCCCNC(=O)CC[C@@H](NC(=O)[C@@H](NC(=O)CNC(=O)/C=C/c4ccc(O)c(OC)c4)C(C)C)C(=O)OCC)cc3)c2n1 [compound 24]	2.8 µM	6200 nM	6160 ± 1250 nM	238 nM	activated TLR7 in the midnanomolar range			
CCCCOc1nc(N)c2nc(O)n(Cc3ccc(C(=O)NCCCCCC(=O)Oc4ccc(/C=C/C(=O)NCC(=O)N[C@H](C(=O)N[C@H](CCC(=O)OCC)C(=O)OCC)C(C)C)cc4OC)cc3)c2n1 [compound 1]	1.9 µM		105 ± 2.8 nM	98.6 ± 1.1 nM				
CCCCOc1nc(N)c2nc(O)n(Cc3ccc(C(=O)NCCOCCNC(=O)CC[C@@H](NC(=O)[C@@H](NC(=O)CNC(=O)/C=C/c4ccc(O)c(OC)c4)C(C)C)C(=O)OCC)cc3)c2n1 [compound 2]	3.67 µM		> 10000 nM	21.4 ± 1 nM				
CCOCc1nc2c(N)nc3ccccc3c2n1CC(C)(C)O [Resiquimod (6), Resiquimod, reference compound]	469 µM							
CCCCOc1nc(N)c2nc(O)n(Cc3ccc(C(=O)NCCOCCOCCNC(=O)[C@@H](CCC(=O)OCC)NC(=O)[C@@H](NC(=O)CNC(=O)/C=C/c4ccc(O)c(OC)c4)C(C)C)cc3)c2n1 [compound 26]	9.2 µM		> 10000 nM	247 nM	activated TLR7 in the midnanomolar range			
CCCCOc1nc(N)c2nc(O)n(Cc3ccc(C(=O)NCCCOCCOCCOCCCNC(=O)CC[C@@H](NC(=O)[C@@H](NC(=O)CNC(=O)/C=C/c4ccc(O)c(OC)c4)C(C)C)C(=O)OCC)cc3)c2n1 [compound 23]	38.6 µM		> 10000 nM	165 nM	activated TLR7 in the midnanomolar range	2.5 fold		
CCCCOc1nc(N)c2nc(O)n(Cc3ccc(C(=O)NCCOCCOCCNC(=O)CC[C@@H](NC(=O)[C@@H](NC(=O)CNC(=O)/C=C/c4ccc(O)c(OC)c4)C(C)C)C(=O)OCC)cc3)c2n1 [compound 22]	85.4 µM		> 10000 nM	419 nM	activated TLR7 in the midnanomolar range		~25 fold	
CCCCOc1nc(N)c2nc(O)n(Cc3ccc(C(=O)NCCOCCOCCOCCn4cc(CNC(=O)CC[C@@H](NC(=O)[C@@H](NC(=O)CNC(=O)/C=C/c5ccc(O)c(OC)c5)C(C)C)C(=O)OCC)nn4)cc3)c2n1 [compound 29]	35.4 µM		> 10000 nM	391 nM	activated TLR7 in the midnanomolar range			
CCOCc1nc2c(N)nc3ccccc3c2n1CC(C)(C)N [compound 7, reference compound]	337 µM			1820 ± 97 nM				5900 ± 1790 nM
CCCCOc1nc(N)c2nc(O)n(Cc3ccc(C(=O)O)cc3)c2n1 [compound 4, reference compound]	483 µM			226 ± 14.5 nM				
CCOC(=O)CCC(NC(=O)C(NC(=O)CNC(=O)C=Cc1ccc(O)c(OC)c1)C(C)C)C(=O)OCC (stereo not drawn) [compound 5]	415 µM							
